According to ChEMBL document CHEMBL1201862, “PubChem BioAssay data set” (2004):
The source made the active and inactive calls.

What was measured:
[1] = activation of miR-122 Renilla sensor silencing – cell-based, Huh7 psiCHECK-miR122, Renilla luciferase, cherry-picked, dose response (AID 651956); assay type: functional;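 also: huh7 hepatoma cells stably carrying a psiCHECK-2 miR-122 sensor plasmid; renilla luciferase signal reporting endogenous miR-122 activity after 48 h compound exposure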
[2] = Dd2 parasite growth inhibition in erythrocytes – SYBR Green, dry powder samples, set 9, dose response (AID 1159568); assay type: functional, cell-based
[3] = general mammalian cell viability loss – inhibitor set, cherry-pick, set 2, cytotoxicity control for miR-122 modulator project, dose response (AID 720697); assay type: functional, cell-based
[4] = general mammalian cell viability loss – activator set, cherry-pick, cytotoxicity control for miR-122 modulator project, dose response (AID 720690); assay type: functional, cell-based;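 also: HEK293T human cells scored for general mammalian cytotoxicity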
[5] = A2780 cell killing – plate reader, dry powder samples, cytotoxicity control, dose response (AID 743046); assay type: functional, cell-based
[6] = OVCAR8 cell viability loss – plate reader, dry powder samples, PAX8 project, dose response (AID 743197); assay type: functional, cell-based; conditions: OVCAR-8
[7] = OVCAR-3 cell viability loss – plate reader, dry powder samples, PAX8 inhibitor project, dose response (AID 743044); assay type: functional, cell-based
[8] = toxicity toward immortalized ovarian surface epithelium – cell-based, plate reader, dry powder samples, cytotoxicity control for PAX8 inhibitor project, dose response (AID 743045); assay type: functional
Paired box protein Pax-8 = Paired box protein Pax-8 (Homo sapiens, UniProt Q06710); assay: PAX8 transcriptional activity inhibition in RMG-I – RMG-I cells, luciferase, cherry-pick, dose response (AID 687027); assay type: functional, cell-based;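 also: luciferase reporter driven by Pax8 target thyroperoxidase promoter measured by SteadyGlo luminescence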
[9] = IGROV1 cell killing – plate reader, dry powder samples, PAX8 inhibitor project, dose response (AID 743043); assay type: functional, cell-based; conditions: IGROV-1
[10] = P. falciparum Dd2 growth inhibitors, dose response, SYBR Green, cherry-picked samples (AID 1159567); assay type: functional, cell-based
[11] = toxicity to human hepatoma HepG2 cells – cell-based, cherry-picked samples, cytotoxicity control, dose response (AID 1159577); assay type: functional
[12] = target: T1, Oxysterols receptor LXR-beta (Homo sapiens, UniProt P55055); assay: LXR agonists, Gal4 luciferase reporter, dose response, counter-screen for ssDAF-12 agonist project, cell-based, luminescence, HEK293, S. stercoralis campaign (AID 720737); assay type: functional; conditions: read-out: IC50 (the source's name)
T1 sequence (P55055 whole entry): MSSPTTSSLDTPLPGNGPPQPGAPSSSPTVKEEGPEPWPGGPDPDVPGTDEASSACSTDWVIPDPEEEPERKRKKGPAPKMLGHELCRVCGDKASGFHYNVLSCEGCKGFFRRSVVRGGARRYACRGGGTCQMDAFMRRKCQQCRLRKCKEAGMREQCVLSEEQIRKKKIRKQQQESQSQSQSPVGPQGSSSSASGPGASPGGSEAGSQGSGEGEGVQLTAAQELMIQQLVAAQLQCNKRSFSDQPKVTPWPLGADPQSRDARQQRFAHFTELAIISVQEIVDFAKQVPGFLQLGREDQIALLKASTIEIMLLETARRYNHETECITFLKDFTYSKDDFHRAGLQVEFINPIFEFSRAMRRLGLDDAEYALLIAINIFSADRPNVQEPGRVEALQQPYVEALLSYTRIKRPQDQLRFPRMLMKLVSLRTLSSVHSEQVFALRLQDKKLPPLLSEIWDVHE

[13] = Luminescence-based cell-based high throughput dose response assay to identify activators of the DAF-12 from the parasite S. stercoralis (ssDAF-12).; assay type: functional
[14] = growth inhibition of yeast DHODH-expressing 3D7 parasites – SYBR Green, dry powder samples, dose response (AID 1159570); assay type: functional, cell-based;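 also: parasite growth measured after 72 hours of compound exposure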
[15] = Dd2 malaria parasite growth inhibition potency – SYBR Green, dry powder samples, dose response (AID 1159566); assay type: functional, cell-based;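 also: potency for growth inhibition with lower SYBR green DNA signal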
[16] = growth inhibition of PfATP4-mutant resistant parasites – NITD609-resistant line, SYBR Green, dry powder, dose response (AID 1159571); assay type: functional, cell-based;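 also: parasites synchronized at ring stage by sorbitol before testing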
[17] = RKO cell viability reduction, dose response, CellTiter-Glo luminescence (AID 1117322); assay type: functional
[18] = Reduced DLD-1 viability, concentration-response, CellTiter-Glo luminescence (AID 1117352); assay type: functional
[19] = cytotoxicity toward HT-29 cells – cell-based, CellTiter-Glo luminescence, IC50, dose response (AID 1117330); assay type: functional
[20] = CellTiter-Glo luminescence survival assay, SW480 colon tumor line, concentration-response curve, half-maximal inhibitory concentration (AID 1117338); assay type: functional
[21] = SNU-C1 cell viability reduction, dose response, CellTiter-Glo luminescence (AID 1117323); assay type: functional, cell-based
[22] = cytotoxicity toward HCT116 cells – cell-based, CellTiter-Glo luminescence, IC50, dose response (AID 1117332); assay type: functional; conditions: HCT-116
[23] = cytotoxicity toward Colo320 cells – cell-based, CellTiter-Glo luminescence, IC50, dose response (AID 1117334); assay type: functional; conditions: COLO 320

Paired box protein Pax-8, sequence (Q06710 whole entry): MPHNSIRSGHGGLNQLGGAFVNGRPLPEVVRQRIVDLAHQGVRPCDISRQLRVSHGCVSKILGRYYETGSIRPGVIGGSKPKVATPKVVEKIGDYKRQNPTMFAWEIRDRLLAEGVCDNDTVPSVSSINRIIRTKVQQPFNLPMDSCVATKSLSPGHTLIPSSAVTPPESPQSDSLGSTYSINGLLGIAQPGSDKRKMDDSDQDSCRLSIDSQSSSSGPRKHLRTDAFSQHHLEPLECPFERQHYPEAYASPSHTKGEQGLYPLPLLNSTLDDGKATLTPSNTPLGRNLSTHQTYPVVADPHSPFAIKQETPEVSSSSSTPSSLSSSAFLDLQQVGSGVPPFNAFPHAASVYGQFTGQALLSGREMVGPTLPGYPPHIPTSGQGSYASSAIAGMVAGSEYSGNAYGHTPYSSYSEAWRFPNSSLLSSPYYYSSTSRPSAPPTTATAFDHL

For `CN1C(=O)c2cc(NC(=O)c3ccc(C(F)(F)F)cc3)ccc2OC[C@H]2O[C@@H](CC(=O)NCc3ccc4c(c3)OCO4)CC[C@H]21`, the AC50 [1] was 10.9 µM (active), the AC50 [2] was 17.8 µM (active) and the AC50 [3] was 7.69 µM (active). The AC50 [4] was 16.2 µM (active).
In the case of `C[C@H]1CN([C@@H](C)CO)S(=O)(=O)c2ccc(C#Cc3ccncc3)cc2O[C@@H]1CN(C)C(=O)Nc1ccc2c(c1)OCO2`, the AC50 [5] is reported as 1.49 µM (active), the AC50 [6] is reported as 1.89 µM (active) and the AC50 [7] is reported as 1.48 µM (active). The AC50 [8] was 3.88 µM (active), the AC50 (Paired box protein Pax-8) was 0.264 µM (active) and the AC50 [9] was 1.23 µM (active).
With `COc1ccc(C#Cc2ccc([C@@H]3[C@H](CO)N4CCCCN(C(=O)Nc5ccc(F)cc5)C[C@@H]34)cc2)cc1` the AC50 [5] was 13.9 µM (active), the AC50 [6] was 41.2 µM (active) and the AC50 (Paired box protein Pax-8) was 15.5 µM (active).
With `COc1ccccc1NC(=O)N1CCCCN2[C@@H](CO)[C@@H](c3ccc(-c4cccc(C)c4)cc3)[C@@H]2C1` the AC50 [6] was 68.6 µM (active), the AC50 [7] was 31.6 µM (active) and the AC50 [8] was 67.5 µM (active). For the same compound, the AC50 (Paired box protein Pax-8) was 13.2 µM (active), the AC50 [10] was 1.43 µM (active) and the AC50 [9] was 28.4 µM (active). For the same compound, the AC50 [11] was 11.2 µM (active).
For `CC1(C)NC(=S)C(C)(C)N1N=O`, the EC50 [12] was > 67.5 µM (inactive) and the IC50 [13] was > 67.5 µM (inactive).
For `COc1ccc(NC(=O)N2CC(=O)N3[C@@H](CO)[C@H](c4ccc(C#CCC5CCCC5)cc4)[C@@H]3C2)cc1`, the AC50 [14] was 2.19 µM (active), the AC50 [15] was 2.17 µM (active) and the AC50 [10] was 3.79 µM (active). The AC50 [11] was > 42 µM (inactive) and the AC50 [16] was 2.84 µM (active).
With `OC[C@H]1[C@@H](c2ccc(-c3cccnc3)cc2)[C@@H]2CN(CC3CC3)CCCCN12` the AC50 [14] was 1.9 µM (active), the AC50 [15] was 1.8 µM (active) and the AC50 [10] was 2.12 µM (active). For the same compound, the AC50 [16] was 2.65 µM (active).
For `CCCNC(=O)N1[C@H](C#N)[C@H](c2ccccc2-c2cccc(C)c2)[C@@H]1CO`, the AC50 [2] was 7.01 µM (active).
For `CCOC(=O)Oc1ccc(CCNC(=O)[C@H](CCSC)NC(C)=O)cc1OC(=O)OCC` [DOCARPAMINE], the IC50 [17] was > 20 µM (inactive), the IC50 [18] was > 20 µM (inactive) and the IC50 [19] was > 20 µM (inactive). The IC50 [20] was > 20 µM (inactive), the IC50 [21] was > 20 µM (inactive) and the IC50 [22] was > 20 µM (inactive). For the same compound, the IC50 [23] was > 20 µM (inactive).
With `Cc1c(NC(=O)c2cccnc2)c(=O)n(-c2ccccc2)n1C` [NIFENAZONE] the IC50 [17] was > 20 µM (inactive), the IC50 [18] was > 20 µM (inactive) and the IC50 [19] was > 20 µM (inactive). For the same compound, the IC50 [20] was > 20 µM (inactive), the IC50 [21] was > 20 µM (inactive) and the IC50 [22] was > 20 µM (inactive). The IC50 [23] was > 20 µM (inactive).
